Where “and” joins values, the source holds several entries; their conditions need not be identical. Equal entries are not always repeated.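 These data come from cells grown in 96-well plates and exposed to compound for 48 hours at five concentrations. At the GI50, growth is halved. At the TGI there is no net growth.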
How the values were obtained:
Assay in all cases: DTP human tumour cell line panel, 48 h
NCI-H460 lung = tested on: NCI-H460 lung
K-562 leukemia = tested on: K-562 leukemia
786-0 renal = tested on: 786-0 renal
RXF 393 renal = tested on: RXF 393 renal
HCT-15 colon = tested on: HCT-15 colon
HOP-62 NSCLC = tested on: HOP-62 NSCLC
MALME-3M melanoma = tested on: MALME-3M melanoma
HOP-92 NSCLC = tested on: HOP-92 NSCLC
COLO 205 colon = tested on: COLO 205 colon
NCI-H226 lung = tested on: NCI-H226 lung
M14 melanoma = tested on: M14 melanoma
SNB-75 CNS = tested on: SNB-75 CNS
SF-268 CNS = tested on: SF-268 CNS
SK-OV-3 ovarian = tested on: SK-OV-3 ovarian
A498 renal = tested on: A498 renal
HCT-116 colon = tested on: HCT-116 colon
SNB-78 CNS = tested on: SNB-78 CNS
OVCAR-4 ovarian = tested on: OVCAR-4 ovarian
SNB-19 CNS = tested on: SNB-19 CNS
NCI-H522 lung = tested on: NCI-H522 lung
NCI-H23 lung = tested on: NCI-H23 lung
CAKI-1 renal = tested on: CAKI-1 renal
SK-MEL-2 melanoma = tested on: SK-MEL-2 melanoma
IGROV1 ovarian = tested on: IGROV1 ovarian
ACHN renal = tested on: ACHN renal
LXFL 529 NSCLC = tested on: LXFL 529 NSCLC
UACC-62 melanoma = tested on: UACC-62 melanoma
OVCAR-8 ovarian = tested on: OVCAR-8 ovarian
A549 NSCLC = tested on: A549 NSCLC
SN12C renal = tested on: SN12C renal
SF-539 CNS = tested on: SF-539 CNS
SW-620 colon = tested on: SW-620 colon
RPMI-8226 leukemia = tested on: RPMI-8226 leukemia
OVCAR-5 ovarian = tested on: OVCAR-5 ovarian
LOX IMVI melanoma = tested on: LOX IMVI melanoma
XF 498 CNS = tested on: XF 498 CNS
MOLT-4 leukemia = tested on: MOLT-4 leukemia
TK-10 renal = tested on: TK-10 renal
M19-MEL melanoma = tested on: M19-MEL melanoma
OVCAR-3 ovarian = tested on: OVCAR-3 ovarian
DMS 273 small cell lung = tested on: DMS 273 small cell lung
UACC-257 melanoma = tested on: UACC-257 melanoma
DMS 114 small cell lung = tested on: DMS 114 small cell lung
EKVX NSCLC = tested on: EKVX NSCLC
SK-MEL-5 melanoma = tested on: SK-MEL-5 melanoma
SF-295 CNS = tested on: SF-295 CNS
HL-60(TB) leukemia = tested on: HL-60(TB) leukemia
KM20L2 colon = tested on: KM20L2 colon
SK-MEL-28 melanoma = tested on: SK-MEL-28 melanoma
HT29 colon = tested on: HT29 colon
UO-31 renal = tested on: UO-31 renal
DLD-1 colon = tested on: DLD-1 colon
HOP-18 NSCLC = tested on: HOP-18 NSCLC
T-47D breast = tested on: T-47D breast
BT-549 breast = tested on: BT-549 breast
HCC-2998 colon = tested on: HCC-2998 colon
HS 578T breast = tested on: HS 578T breast

With `CC(C)=CC(=O)Cc1nc2ccc([N+](=O)[O-])cc2[nH]c1=O` the TGI (NCI-H460 lung) was over 100 µM, the TGI (K-562 leukemia) was over 100 µM and the TGI (786-0 renal) was over 100 µM. For the same compound, the TGI (RXF 393 renal) was over 100 µM, the TGI (HCT-15 colon) was over 100 µM and the TGI (HOP-62 NSCLC) was over 100 µM. The TGI (MALME-3M melanoma) was over 100 µM, the TGI (HOP-92 NSCLC) was over 100 µM and the TGI (COLO 205 colon) was over 100 µM. For the same compound, the TGI (NCI-H226 lung) was over 100 µM, the TGI (M14 melanoma) was over 100 µM and the TGI (SNB-75 CNS) was over 100 µM. It also gave a TGI (SF-268 CNS) of over 100 µM, a TGI (SK-OV-3 ovarian) of over 100 µM and a TGI (A498 renal) of over 100 µM. It also gave a TGI (HCT-116 colon) of over 100 µM, a TGI (SNB-78 CNS) of over 100 µM and a TGI (OVCAR-4 ovarian) of over 100 µM. The TGI (SNB-19 CNS) was over 100 µM, the TGI (NCI-H522 lung) was over 100 µM and the TGI (NCI-H23 lung) was over 100 µM. It also gave a TGI (CAKI-1 renal) of over 100 µM, a TGI (SK-MEL-2 melanoma) of over 100 µM and a TGI (IGROV1 ovarian) of over 100 µM. It also gave a TGI (ACHN renal) of over 100 µM, a TGI (LXFL 529 NSCLC) of over 100 µM and a TGI (UACC-62 melanoma) of over 100 µM. For the same compound, the TGI (OVCAR-8 ovarian) was over 100 µM, the TGI (A549 NSCLC) was over 100 µM and the TGI (SN12C renal) was over 100 µM. The TGI (SF-539 CNS) was over 100 µM, the TGI (SW-620 colon) was over 100 µM and the TGI (RPMI-8226 leukemia) was over 100 µM. The TGI (OVCAR-5 ovarian) was over 100 µM, the TGI (LOX IMVI melanoma) was over 100 µM and the TGI (XF 498 CNS) was over 100 µM. The TGI (MOLT-4 leukemia) was over 100 µM, the TGI (TK-10 renal) was over 100 µM and the TGI (M19-MEL melanoma) was over 100 µM. It also gave a TGI (OVCAR-3 ovarian) of over 100 µM, a TGI (DMS 273 small cell lung) of over 100 µM and a TGI (UACC-257 melanoma) of over 100 µM. For the same compound, the TGI (DMS 114 small cell lung) was over 100 µM, the TGI (EKVX NSCLC) was over 100 µM and the TGI (SK-MEL-5 melanoma) was over 100 µM. The TGI (SF-295 CNS) was over 100 µM, the TGI (HL-60(TB) leukemia) was over 100 µM and the TGI (KM20L2 colon) was over 100 µM. For the same compound, the TGI (SK-MEL-28 melanoma) was over 100 µM, the TGI (HT29 colon) was over 100 µM and the TGI (UO-31 renal) was over 100 µM. The TGI (DLD-1 colon) was over 100 µM.

With `COc1ccc(/C=C\c2cc(OC)c(OC)c(OC)c2)cc1O` the TGI (786-0 renal) was 25.5 µM, the GI50 (COLO 205 colon) was 2.49 µM and the TGI (COLO 205 colon) was 43.3 µM and 22.1 µM. It also gave a TGI (HOP-18 NSCLC) of over 100 µM, a TGI (SK-OV-3 ovarian) of under 0.031 µM and a GI50 (T-47D breast) of 48 µM. For the same compound, the TGI (T-47D breast) was 91.2 µM, the GI50 (SNB-78 CNS) was 0.00409 µM and < 0.001 µM and the TGI (SNB-78 CNS) was over 100 µM. The GI50 (OVCAR-4 ovarian) was 6.58 µM, the TGI (CAKI-1 renal) was 13.9 µM and > 59.5 µM and the TGI (BT-549 breast) was over 100 µM. For the same compound, the TGI (HCC-2998 colon) was 1.22 µM and 2.38 µM, the GI50 (OVCAR-5 ovarian) was 4.27 µM and the TGI (OVCAR-5 ovarian) was 78.6 µM and > 91.4 µM. For the same compound, the GI50 (TK-10 renal) was 2.63 µM and 0.567 µM, the TGI (TK-10 renal) was 4.16 µM and the TGI (HS 578T breast) was 8.09 µM. For the same compound, the TGI (EKVX NSCLC) was 82.1 µM, the TGI (KM20L2 colon) was 8.28 µM and 16.2 µM and the GI50 (SK-MEL-28 melanoma) was 3.16 µM. The GI50 (HT29 colon) was 0.664 µM, the TGI (HT29 colon) was 9.28 µM and > 44.9 µM and the TGI (UO-31 renal) was over 88.6 µM.
